Laboratory results as given in US11104684B2, “Dimers of covalent NFKB inhibitors” (BOARD OF REGENTS OF THE UNIVERSITY OF NEBRASKA, priority 2016, dated 2021).

What was measured:
[1] = tested on: A2780 cells; assay: Cell viability assay (PrestoBlue, 72 hour drug incubation); format: cell-based; details: 72 hour incubation, growth inhibition; for IC50: Homo sapiens
Description: (§1) MiaPaCa2, A2780, and OVCAR5 cells were plated at 4000 cells/well in a 96-well plate and allowed to adhere overnight. The following day, cells were treated with compounds using ˜10-fold dilutions starting at 1000 nM. PrestoBlue reagent (Invitrogen #A13262) was added to cells after 72 hour drug incubation to assess the growth inhibition. Fluorescence excitation/emission was measured at 560/590nM using a SpectraMax M5^e instrument. Growth inhibition was calculated using 100-[100*(Samples-T0)/(T100-T0)]. T0 is the vehicle control reading immediately following drug addition and T100 is the control reading at the end of 72 hour incubation.

[2] = tested on: OVCAR5 cells; assay: as above; format: cell-based; details: growth inhibition; for IC50: Homo sapiens, OVCAR-5, 72 hour incubation
Description: as §1

[3] = tested on: MiaPaCa2 cells; assay: as above; format: cell-based; details: Homo sapiens, MIA PaCa-2, 72 hour incubation, growth inhibition
Description: as §1

[4] = tested on: non-transformed HGSC precursor fallopian tube epithelial (FTE) cells FT282; assay: Growth inhibition in non-transformed fallopian tube epithelial cells; format: cell-based; details: for IC50: Epithelial cell, non-transformed FT282 cells
Description: Monomeric compound 19, 36-252, and 36-242 were evaluated in non-transformed HGSC precursor fallopian tube epithelial (FTE) cells FT282.

[5] = tested on: ovarian cancer cells; assay: 3-day growth assay; format: cell-based
Source text: In the same assay, reduced compound 36-297.

[6] = tested on: caspase 3/7 activity in HGSC cell lines; assay: Caspase 3/7 luciferase assay (apoptosis); format: cell-based; details: 1 μM, 6 hours, five HGSC cell lines
Description: To determine the effect of 36-252 on apoptosis, a small panel of HGSC cell lines was treated with 1 μM 36-252 for 6 hours (1 μM of flavopiridol was used as a positive control). Caspases are a class of cysteine proteinases that are activated during apoptosis and measuring caspase activity is routinely used to detect activation of apoptotic signaling. Activation of caspase 3/7 was assessed using a luciferase assay.
2500 cells were plated in a 384-well black walled clear bottom plate at 2,500 cells per well in […] per well in the presence of 4.5 μM doxycycline. Cells were incubated overnight to adhere to plate. After cells were treated and plate was allowed to incubate, Caspase-glo (Promega G8093) reagent was added and the plate was allowed to incubate for 30 min. The plate was then read for luminescence at 1000 ms. Presto-blue was added at a volume of 1/10 total volume per well (2.5μL) and cells were allowed to incubate for 10 min. The plate was then read for fluorescence at 560ex/590em. Values were calculated by: ([Luminescence*100]/Fluorescence)/DMSOavg.

[7] = tested on: A2780 SP cells; assay: Side population analysis (Hoechst 33342, flow cytometry); details: 60 μM, 15 min at 37° C.
Description: (§2) Hoechst 33342 dye (5 μg) was added to each tube and incubated for 45 min at 37° C. Tubes were vortexed slightly after every 5 min. Cells were resuspended in a single cell suspension after centrifugation and kept on ice before acquisition. The side-population was measured by flow cytometry.

[8] = tested on: proteins in the IKK complex (A2780 cells); assay: Western blot analysis of crosslinking; format: cell-based; details: for crosslinking (high molecular weight bands): A2780 cells, 10 pM, 2 hours
Description: Crosslinking of proteins in the IKK complex was studied as follows. A2780 cells were treated with 10 pM of analog 19 or 36-252 and incubated for 2 hours.
Cells were washed with cold 1×PBS 3 times and scraped before being lysed by a buffer containing the following: 50 mM Tris, 100 mM NaCl, 1% NP-40, […], 20% SDS, 20×PPl (Na3VO4, NAF, β-glycerophosphate) and 1 mmol/L PMSF. After collection, samples were incubated on ice for 30 minutes and vortexed in 15 minute intervals. Samples were then centrifuged at 14,000rpm for 10 minutes at 4° C. and supernatant was collected. Protein quantification was determined by BCA Protein Assay (Pierce #23225). 20-40ug protein samples were run on 4-15% gradient gels (BioRad) in 1×TRIS-Glycine-SDS Buffer (Research Products International Corporation #T32080) at 120V for -60 minutes and separated by SDS-page electrophoresis. Samples were transferred to a PVDF membrane by semi-dry transfer method (ThermoScientific #35035) run at 18V for ˜35 minutes. Membranes were blocked in 5% milk diluted in 1×-Tris Buffered Saline with 0.1% Tween (1×TBST) for 1 hour at room temperature rocking at low speed. Primary antibodies were diluted in 5% milk in 1×TBST and were rocked gently overnight in 4° C. Membranes were incubated with the appropriate HRP-conjugated secondary antibody for 1 hour at room temperature while gently rocking. 3 washes (10 minute) with 1×TBST occurred before and after secondary antibody. ECL Prime (GE Healthcare #RPB2236) was used to detect protein expression

[9] = tested on: OVCAR5 SP cells; assay: Side population analysis (Hoechst 33342, flow cytometry); details: 60 μM, 15 min at 37° C.
Description: as §2

[10] = tested on: TNF-α-induced NFκB activity in A549 luciferase cells; assay: kB-luciferase assay; format: cell-based; details: 20, 4, and 0.8 pM for 2 hours, then TNF-a
Description: A549 luciferase cells were seeded in white 96-well plates at a density of 50,000 cells per well and incubated overnight. Cells were stimulated with 20 ng/mL TNFα (Panomics) for 3 hours. AlamarBlue (abSerotec) was added (which served as a control for seeding and viability) and the cells were incubated for 3 additional hours. ONE-Glo Luciferase reagent (Promega) was added to each well and cells were incubated at room temperature for an additional 10 minutes before luminescence was measured at 1000 ms integration on a SpectraMax M5e plate reader.
The effect 36-252 and 36-297 on NFκB driven gene expression was evaluated using a cancer cell line specifically designed to monitor the activity of NFκB in response to TNF-α. Cells were seeded onto 96-well plates and allowed to attach overnight. The cells were treated with 36-252 and 36-297 (20, 4, and 0.8 pM) for 2 hours, followed by TNF-a for an additional 6 hours. Under multiplexing conditions the cells were assayed for viability using Alamar Blue (Ab Serotec) and the NFκB transcription activity using the ONE-Glo luciferase system (Promega).

[11] = tested on: high grade serous carcinoma (HGSC) ovarian cancer cell lines; assay: Growth inhibition in a panel of HGSC ovarian cancer cell lines; format: cell-based
Description: The IC50 value of all three inhibitors was greater than 20 μM in this cell line.

[12] = Dose limiting toxicities / MTD study; format: in vivo
Description: Six to eight-week-old C57 Albino mice (18-22 grams) were used in this study and were randomly assigned. For MTD studies, 3 mice were randomly assigned to six groups. Animals (Group 1-6) received a single dose of (0, 1, 5, 10, 20 and 100 mg/Kg in […] neat DMSO) of 36-252 via intraperitoneal injection. Mice were sacrificed after 48 hours, and blood and serum samples were subjected to hematology and clinical chemistry analyses. For group 7, a 6-day, 5 mg/kg/day study was carried out followed by submission of samples for hematology and clinical chemistry analyses.
In the phase I study, the lethal dose or maximum tolerated dose of 36-252 was evaluated. […] In the phase II study, three mice at 5 mg/kg/day were administered intraperitoneally for six days.

[13] = panel of HGSC ovarian cancer cell lines
[14] = mouse, in vivo, ip, 5 mg/kg/day

Row | Compound | IC50 [1] [µM] | IC50 [2] [µM] | IC50 [3] [µM] | also measured
1 | C=C1CC2(OC1=O)C(=O)N(CCCCCCCCCCCCN1C(=O)C3(CC(=C)C(=O)O3)c3ccccc31)c1ccccc12 (centres unmarked) [Compound 36-242] | 0.5 ± 0.06 | 0.47 ± 1.29 | 1.94 | IC50 [4]: > 20 µM; potency relative to monomeric compound 19 [5]: 10 fold
2 | C=C1CC2(OC1=O)C(=O)N(CCCCCN1C(=O)C3(CC(=C)C(=O)O3)c3ccccc31)c1ccccc12 (centres unmarked) [Compound 36-202] | 0.29 ± 0.04 | 0.09 ± 0.01 | 0.91 | –
3 | C=C1CC2(OC1=O)C(=O)N(Cc1ccc(CN3C(=O)C4(CC(=C)C(=O)O4)c4ccccc43)cc1)c1ccccc12 (centres unmarked) [Compound 40-014] | 0.31 ± 0.02 | 0.18 ± 0.01 | – | –
4 | C=C1CC2(OC1=O)C(=O)N(CCCCCCCCCCCN1C(=O)C3(CC(=C)C(=O)O3)c3ccccc31)c1ccccc12 (centres unmarked) [Compound 36-258] | 0.77 ± 0.14 | 0.83 ± 0.12 | – | –
5 | C=C1CC2(NC1=O)C(=O)N(CCCCN1C(=O)C3(CC(=C)C(=O)N3)c3ccccc31)c1ccccc12 (centres unmarked) [Compound 40-038] | 0.4 ± 0.06 | 0.2 ± 0.04 | – | –
6 | C=C1CC2(OC1=O)C(=O)N(CCCCCCN1C(=O)C3(CC(=C)C(=O)O3)c3ccccc31)c1ccccc12 (centres unmarked) [Compound 36-239] | 0.7 ± 0.09 | 0.3 ± 0.02 | 1.05 | –
7 | C=C1CC2(NC1=O)C(=O)Nc1ccccc12 (centres unmarked) [Compound 25-4] | 0.99 ± 0.11 | 3.13 ± 0.55 | 6.08 | –
8 | C=C1CC2(OC1=O)C(=O)N(CCN1C(=O)C3(CC(=C)C(=O)O3)c3ccccc31)c1ccccc12 (centres unmarked) [Compound 40-059] | 0.42 ± 0.04 | 0.32 ± 0.02 | – | –
9 | C=C1CC2(OC1=O)C(=O)N(CCCCCCCN1C(=O)C3(CC(=C)C(=O)O3)c3ccccc31)c1ccccc12 (centres unmarked) [Compound 36-252] | 0.32 | 0.32 | 0.76 | caspase 3/7 activity [6]: Increased caspase 3/7 activity was seen in three of the five HGSC cell lines; SP cells eliminated, A2780 [7]: > 98%; crosslinking (high molecular weight bands) [8]: High molecular weight bands in the NFκB and IKBα blots were observed; bands in time course study ([8]; time course study): a band between 150 and 250 kDa in addition to the IKBα-NFκB bands; protein degradation / PARP cleavage ([8]; time course study): degradation of IKK α/β and PARP cleavage; SP cells eliminated, OVCAR5 [9]: > 85%; IC50 [4]: > 20 µM; apparent therapeutic index ([4]; FT282 IC50 vs average HGSC IC50): greater than 25; inhibition of NFκB transcription activity [10]: Dose-dependent inhibition was observed; IC50 ([11]; average over HGSC cell lines): 780 nM; potency compared with 19 and 36-242 [11, 13]: more potent than analog 19 and a dimer with a 12-carbon linker 36-242; potency in HGSC panel [11, 13]: sub μM; Treated/Alive ([12]; 1 mg/Kg, 1 dose, intraperitoneal, mice): (3/3); hematological analysis (WBC, RBC, hemoglobin) ([12]; mouse, in vivo): no significant differences in relative WBC, RBC, or hemoglobin numbers; overt toxicity ([12]; mouse, in vivo, 100 mg/kg): no sign of overt toxicity was observed; mean body weight [12, 14]: nor was any statistical difference in mean body weight observed; mortality and clinical levels [12, 14]: No mortality or abnormal clinical levels were observed
10 | CC1CC2(OC1=O)C(=O)N(CCCCCCCN1C(=O)C3(CC(C)C(=O)O3)c3ccccc31)c1ccccc12 (centres unmarked) [Compound 36-297] | – | – | – | IC50 (μM) A2780 [1]: Inactive; IC50 (μM) OVCAR5 ([2]; 72 hour incubation): Inactive
11 | C=C1CC2(OC1=O)C(=O)Nc1ccccc12 (centres unmarked) [Compound 19] | – | – | – | crosslinking (high molecular weight bands) [8]: High molecular weight bands in the NFκB and IKBα blots were observed; IC50 [4]: > 20 µM

Further compounds by falling IC50 [1], results first:

Row | IC50 [1] [µM] | IC50 [2] [µM] | IC50 [3] [µM] | Compound | also measured
12 | 1.08 ± 0.01 | 0.48 ± 0.06 | 2.16 | C=C1CC2(OC1=O)C(=O)N(CCCCCCCCCN1C(=O)C3(CC(=C)C(=O)O3)c3ccccc31)c1ccccc12 (centres unmarked) [Compound 36-204] | –
13 | 0.6 ± 0.07 | 0.32 | 1.7 | C=C1CC2(OC1=O)C(=O)N(CCCCCCCCN1C(=O)C3(CC(=C)C(=O)O3)c3ccccc31)c1ccccc12 (centres unmarked) [Compound 36-254] | –
14 | 0.49 ± 0.06 | 0.41 ± 0.06 | 1.47 | C=C1CC2(OC1=O)C(=O)N(CCCCCCCCCCN1C(=O)C3(CC(=C)C(=O)O3)c3ccccc31)c1ccccc12 (centres unmarked) [Compound 36-256] | –
15 | 0.35 ± 0.05 | 0.37 ± 0.04 | – | C=C1CC2(OC1=O)C(=O)N(CCCCCCCN1C(=O)C3(CC(=C)C(=O)O3)c3c(C)ccc(C)c31)c1c(C)ccc(C)c12 (centres unmarked) [Compound 36-280] | –
16 | 0.23 ± 0.02 | 0.09 ± 0.01 | – | C=C1CC2(OC1=O)C(=O)N(CCCN1C(=O)C3(CC(=C)C(=O)O3)c3ccccc31)c1ccccc12 (centres unmarked) [Compound 36-286] | –
